Assay: Human HepG2 cell viability assay in 384 well format
Assay type: toxicity, cell-based
Parameters: dose 125 nL, time 70.5 hour; cytotoxicity at 70.5 h: concentration not given beside the values
Details: HepG2 cells, read-out: Inhibition

COCc1nc(N(C)C)ncc1C(=O)OC
cytotoxicity at 70.5 h: -4.46%

Cc1cc(NC(=O)CC2(Cn3cnnn3)CCCCC2)nn1C
cytotoxicity at 70.5 h: -23.2%

Cc1ccc(C)c(NC(=O)Cn2cc(I)cn2)c1
cytotoxicity at 70.5 h: -13.2%

Cc1ccc(NC(=O)Cn2cc(I)cn2)cc1C
cytotoxicity at 70.5 h: 20.3%

COc1cccc2c1ccn2CCC(=O)N1CCC(C(=O)O)CC1
cytotoxicity at 70.5 h: -5.23%

CC(C)NC(=O)CC1(Cn2cnnn2)CCCCC1
cytotoxicity at 70.5 h: -22.1%

O=C(COc1coc(CN2CCCCC2)cc1=O)c1ccccc1
cytotoxicity at 70.5 h: -18.6%

COc1ccc(C(=O)COc2coc(CN3CCSCC3)cc2=O)cc1
cytotoxicity at 70.5 h: -19.9%

O=C(O)C1CCCN(C(=O)CCn2ccc3c(Cl)cccc32)C1 (configuration not stated)
cytotoxicity at 70.5 h: -17.2%

CCCOc1cccc(C(=O)Oc2cc(=O)n3cccc(C)c3n2)c1
cytotoxicity at 70.5 h: -12.8%

Cc1cccn2c(=O)cc(OC(=O)c3ccccc3Cl)nc12
cytotoxicity at 70.5 h: -10.1%

COCCNC(=O)Cn1c(-c2cccc(Cl)c2)nc(C)c(CCO)c1=O
cytotoxicity at 70.5 h: 0.393%

CC/N=c1\nc(NCC)nc2n1C(O)(Nc1cccc(Cl)c1Cl)CS2 (configuration not stated)
cytotoxicity at 70.5 h: -1.29%

COCCNC(=O)Cn1c(-c2ccc(F)cc2)nc(C)c(CCO)c1=O
cytotoxicity at 70.5 h: -2.18%

CCOc1cccc2c1OCC(=O)N(c1ccc(N(C)C)cc1)C2
cytotoxicity at 70.5 h: -8.85%

O=c1[nH]c2c(-c3ccccn3)nsc2c(=O)n1C1CCCCC1
cytotoxicity at 70.5 h: -5.9%

O=c1[nH]nc2c(S(=O)(=O)N3CCCC3)cccn12
cytotoxicity at 70.5 h: -4.02%

COCCn1ccc2c(cnc3nc(SC)nn32)c1=O
cytotoxicity at 70.5 h: -4.98%

c1cc(-c2nnc3sc(CCN4CCCC4)nn23)ccn1
cytotoxicity at 70.5 h: -9.13%

O=C(c1cc(Br)ccc1-n1cnnn1)N1CCCC1
cytotoxicity at 70.5 h: -3.68%

O=C(CCc1ccc2c(c1)CCO2)Nc1nnn[nH]1
cytotoxicity at 70.5 h: -6.65%

CC(O)CNc1c(NCc2ccco2)c(=O)c1=O (configuration not stated)
cytotoxicity at 70.5 h: -9.21%

C[C@H](NC(=O)OC(C)(C)C)c1nnc(S(=O)(=O)Cc2cccc(F)c2)o1
cytotoxicity at 70.5 h: -6.88%

O=C(c1cc(Br)ccc1-n1cnnn1)N1CCCCC1
cytotoxicity at 70.5 h: 6.11%

O=C(O)Cn1nc(-c2ccccc2F)ccc1=O
cytotoxicity at 70.5 h: 2.69%

NC(=O)Cn1nc(-c2ccccc2F)ccc1=O
cytotoxicity at 70.5 h: -9.13%

CCOc1cc(C)c(-c2cc(N)[nH]n2)cc1OCC
cytotoxicity at 70.5 h: -8.56%

CC/N=c1\nc(NCC)nc2n1C(O)(Nc1cc(C)ccc1C)CS2 (configuration not stated)
cytotoxicity at 70.5 h: -10.1%

CCOc1ccc(CNCCCn2ccnc2)cc1OC
cytotoxicity at 70.5 h: -13.2%

Cc1nc(Nc2ccc(Cl)cn2)sc1C(=O)NCCCN1CCCCC1
cytotoxicity at 70.5 h: -3.37%

O=C(O)c1nnn(Cc2cccc(C(F)(F)F)c2)c1-c1ccccn1
cytotoxicity at 70.5 h: -7.66%

O=C(O)c1nnn(Cc2cccc(C(F)(F)F)c2)c1-c1ccncc1
cytotoxicity at 70.5 h: -8.89%

O=C(c1ccc(-c2ccc(O)nc2)s1)N1CCCCC1
cytotoxicity at 70.5 h: -8.32%

Cn1ncc(C(=O)N2CCN(C(=O)c3ccco3)CC2)c1Cl
cytotoxicity at 70.5 h: -13.4%

Cc1ccc2cnn(CCC(=O)Nc3nc(C)c(C)s3)c2c1
cytotoxicity at 70.5 h: 4.56%

COCc1nc(N(C)C)ncc1C(=O)Nc1cc(C)cc(C)c1
cytotoxicity at 70.5 h: -6.56%

Cc1ccc(CNc2cc(C(=O)N3CCOCC3)nc(C)n2)cc1
cytotoxicity at 70.5 h: -9.84%

Cc1nc(NCCc2ccccc2)cc(C(=O)N2CCOCC2)n1
cytotoxicity at 70.5 h: 5.2%

CCOC(=O)C1CCN(c2cc(C(=O)N3CCOCC3)nc(C)n2)CC1
cytotoxicity at 70.5 h: 0.918%

CCC(=O)Nc1nnc(CCOc2ccc(OC)cc2)s1
cytotoxicity at 70.5 h: 3.07%

CCn1c(SCC(=O)O)nnc1C(C)NC(=O)c1ccc(Cl)cc1 (configuration not stated)
cytotoxicity at 70.5 h: -8.19%

CC(NC(=O)c1ccc(Cl)cc1)c1nnc(SCC(=O)O)n1C (configuration not stated)
cytotoxicity at 70.5 h: 18.7%

CCOC(=O)C1CCN(c2cc(C(=O)N3CCCCC3)nc(C)n2)CC1
cytotoxicity at 70.5 h: -8.82%

O=C(O)c1ccnc2c(Br)cccc12
cytotoxicity at 70.5 h: -3.81%

CCn1ccc(NC(=O)CN2C(=O)CC(C)(C)c3ccccc32)n1
cytotoxicity at 70.5 h: -8.59%

COc1ccc(C(=O)CN(C2=NCCCCC2)c2ccccc2)cc1
cytotoxicity at 70.5 h: -25.8%

O=C(CN(C1=NCCCC1)c1ccccc1)c1ccc(OC(F)F)cc1
cytotoxicity at 70.5 h: -4.12%
